Results from patent US8410081B2, “Treatment of cystic fibrosis” (Academisch Medisch Centrum, priority 2006, dated 2013).

How the values were obtained:
[1] = system: delF508-CFTR in ileal mucosa; experiment: intestine explants from ileal mucosa of delF508 mice (short-circuit current, Western blot, immunohistochemistry); conditions: 10 nM
Procedure: To test the therapeutic potential of GBA2 inhibitors for CF further the effects of AMP-DNM on intestine explants from ileal mucosa of delF508 mice were analysed. The following assay was used:
Rotterdam delF508/delF508-CFTR mice (Cfr^tm1 Eur), their littermate controls (FVB inbred, 14-17 weeks old, weight between 20 and 30 g, kept on solid food in a pathogen-free environment) and Cftr-KO mice (Cftr^tm2 Cam) were used. Muscle-stripped ileal mucosa was incubated in William's E-Glutamax medium supplemented with insulin (10 μg/ml) and dexamethasone (20 μg/ml). At different time points, the compound was removed by repeated washings followed by short-circuit current (Isc) measurements in mini-Ussing chambers. Western blotting was as performed and immunoblots were probed with monoclonal mouse anti-CFTR antibody (10 μg/ml, IgG1 M3A7, Chemicon, USA). The protein levels were expressed as densitometry and percentage of controls. For immunohistochemistry, tissues were fixed in 4% (wt/vol) paraformaldehyde. Sections (5 μm) were stained with the antibody R3195 (1:500).

[2] = system: delF508-CFTR containing epithelial CF cells (CF15); experiment: cAMP-activated chloride current, perforated whole-cell patch-clamp / iodide efflux in CF15 cells; format: cell-based, human; conditions: 10 nM; del F508-CFTR containing epithelial CF cells
From the text: The effects of AMP-DNM on cAMP-activated chloride current in delF508-CFTR containing epithelial CF cells were studied with the following assay:
Perforated whole-cell patch-clamp analysis was applied to CF15 cells (human nasal epithelial cell line obtained from delF508 homozygous patient). Patch electrodes (GC150-TF10, Harvard Apparatus, USA) filled with intracellular solution (resistances of 3-4 MΩ) were connected to the RK-400 amplifier (Biologic, France) through an Ag/AgCl pellet. External solution (mM): 145 NaCl, 4 CsCl, 1 MgCl2, 1 CaCl2, 5 d-glucose, 10 TES (pH 7.4, 315 mOsm). Intra-pipette solution (mM): 113 l-aspartic acid, 113 CsOH, 27 CsCl, 1 NaCl, 1 EGTA, 1 MgCl2, 3 Mg-ATP (ex-temporane), 10 TES (pH 7.2 with CsOH, 285 mOsm) and amphotericin B (100 μg/ml) renewed every 2 h. Only cells with input resistance […] were analysed. The mean access resistance and whole cell capacitance were 12±0.6 MΩ and 35±4.3 pF (n=44). Currents were obtained in response to voltage steps from −80 to +80 mV in 20 mV increment. Data were collected using pClamp 6.0.3 package software (Axon Instruments, USA). CFTR Cl^− channel activity was assayed on a cell population by the iodide (^125I) efflux technique.

[3] = target: T1, glucosylceramide synthase (GCS) (Homo sapiens, UniProt Q16739); experiment: glucosylceramide synthase (GCS) IC50 determination; format: biochemical; conditions: for IC50: enzyme preparations exposed to dilutions of inhibitor
T1 sequence (Q16739 1-394): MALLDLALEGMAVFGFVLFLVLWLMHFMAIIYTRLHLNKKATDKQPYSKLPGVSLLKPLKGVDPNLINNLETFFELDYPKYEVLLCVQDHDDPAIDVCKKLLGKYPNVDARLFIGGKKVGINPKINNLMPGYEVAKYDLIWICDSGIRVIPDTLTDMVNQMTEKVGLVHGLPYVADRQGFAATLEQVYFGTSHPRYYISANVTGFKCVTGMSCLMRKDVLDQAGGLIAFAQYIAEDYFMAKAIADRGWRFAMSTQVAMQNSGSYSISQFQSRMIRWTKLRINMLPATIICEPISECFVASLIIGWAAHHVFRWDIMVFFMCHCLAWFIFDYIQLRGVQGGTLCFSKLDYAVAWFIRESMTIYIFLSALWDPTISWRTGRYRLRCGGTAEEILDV

[4] = target: T2, GBA2 (non-lysosomal glucosylceramidase) (Homo sapiens, UniProt Q9HCG7); experiment: non-lysosomal glucosylceramidase (GBA2) IC50 determination; format: biochemical; conditions: enzyme preparations exposed to dilutions of inhibitor
T2 construct: host or cells: GBA2 containing membranes
T2 sequence (Q9HCG7 1-927): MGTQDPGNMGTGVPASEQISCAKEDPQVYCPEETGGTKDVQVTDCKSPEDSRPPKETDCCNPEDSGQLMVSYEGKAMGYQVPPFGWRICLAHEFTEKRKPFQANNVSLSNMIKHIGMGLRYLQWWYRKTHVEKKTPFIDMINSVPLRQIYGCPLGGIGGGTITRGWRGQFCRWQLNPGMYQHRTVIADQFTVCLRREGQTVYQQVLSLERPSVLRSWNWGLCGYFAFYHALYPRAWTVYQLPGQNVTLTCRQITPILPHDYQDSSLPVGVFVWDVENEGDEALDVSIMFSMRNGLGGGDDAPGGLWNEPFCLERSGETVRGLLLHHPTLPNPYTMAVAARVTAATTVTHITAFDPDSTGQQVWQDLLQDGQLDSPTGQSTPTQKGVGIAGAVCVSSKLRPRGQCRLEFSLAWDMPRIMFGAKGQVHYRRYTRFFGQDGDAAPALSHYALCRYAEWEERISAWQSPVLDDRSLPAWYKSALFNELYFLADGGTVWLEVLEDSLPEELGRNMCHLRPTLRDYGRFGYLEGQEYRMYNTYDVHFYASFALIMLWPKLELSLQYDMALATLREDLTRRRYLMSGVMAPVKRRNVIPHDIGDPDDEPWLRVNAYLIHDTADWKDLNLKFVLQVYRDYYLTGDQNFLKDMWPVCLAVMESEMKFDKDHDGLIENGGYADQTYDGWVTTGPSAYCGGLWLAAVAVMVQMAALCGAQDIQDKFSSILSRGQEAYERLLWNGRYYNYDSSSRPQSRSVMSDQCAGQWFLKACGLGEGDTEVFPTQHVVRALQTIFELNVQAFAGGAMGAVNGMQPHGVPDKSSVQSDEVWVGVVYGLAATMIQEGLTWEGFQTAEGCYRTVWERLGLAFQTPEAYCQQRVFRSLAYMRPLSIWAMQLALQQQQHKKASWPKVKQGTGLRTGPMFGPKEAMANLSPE

IC50 [3]	IC50 [4]	inhibition of GCS (in words) [3]	SMILES	rescue of delF508-CFTR in intestinal crypts of ileal mucosa [1]	restoration of cAMP-activated chloride current, % of normal levels [2]
–	–	–	OC[C@@H]1[C@@H](O)[C@H](O)[C@@H](O)CN1CCCCCOCC12CC3CC(CC(C3)C1)C2 [AMP-DNM, N-[5′-(adamantan-1′-yl-methoxy)-pentan]-1-deoxynojirimycin]	rescues a mature and functional delF508-CFTR	up to 30%
10 µM	2 nM	–	OC[C@@H]1[C@@H](O)[C@H](O)[C@@H](O)CN1CCCCOCC12CC3CC(CC(C3)C1)C2 [N-[5′-(adamantan-1′-yl-methoxy)-butan]-1-deoxynojirimycin]	–	–
> 100 µM	–	hardly inhibits GCS	CC(C)(C)COCCCCCN1C[C@H](O)[C@@H](O)[C@H](O)[C@H]1CO [N-[5′-neopentyloxy-pentan]-1-deoxynojirimycin]	–	–
7.5 µM	1 nM	–	OC[C@@H]1[C@@H](O)[C@H](O)[C@@H](O)CN1CCCCCCC12CC3CC(CC(C3)C1)C2 [N-[6′-adamantyl-hexan]-1-deoxynojirimycin]	–	–
